Measured values taken from patent publication US7560558B2, “Compound having TGFβ inhibitory activity and medicinal composition containing the same” (Kirin Beer Kabushiki Kaisha, priority 2002, dated 2009).
Counter-ions that a name gives are not always drawn.

Tested on: TGFβ signal
Assay: TGFβ signal inhibitory activity, (SBE)4-Luc luciferase reporter in A549 cells
Format: cell-based, human
Details: TGFβ-1 2 ng/ml, A549 (SBE)4-Luc; for inhibition at 3 µM / inhibition at 10 µM: Homo sapiens, A549, 4 h; for TGFβ inhibition, %: 4 hr
Description: The TGFβ signal inhibitory activity of compounds according to the present invention was evaluated according to the method described in J. Boil. Chem., 273, 21145-21152 (1998). Specifically, a luciferase gene driving by four tandem binding sequences of Smad2/3, which are TGFβ signal transfer factors was used as a reporter gene ((SBE)4-Luc). This reporter gene was introduced into human lung cancer epithelial cells (A549) (available from ATCC) to establish a stable cell line expressing its gene. A test compound and TGFβ-1 (2 ng/ml) were added to the cells, and the mixture was cultured for 4 hr. Compounds according to the present invention synthesized in the above working examples were used as the test compound. After the culture, the luciferase activity of cells was measured by a chemiluminescence method (Steady Glo (trademark) luciferase assay system available from Promega). Likewise, the luciferase activity was measured for control cells, that is, cells which had been cultured with the addition of TGFβ only, and cells which had been cultured without the addition of TGFβ and the test compound. The TGFβ inhibition rate (%) was calculated based on the results of measurement according to the following equation: TGFβ inhibition rate (%)=(A−B)/(A−C)×100 wherein A, B and C have the following respective meanings: A: luciferase activity in the case where TGFβ1 was added and the test compound was not added (relative luciferase unit); B: luciferase activity in the case where both TGFβ1 and the test compound were added (relative luciferase unit); and C: luciferase activity in the case where neither TGFβ1 nor the test compound was added (relative luciferase unit). The test was carried out for each of a test compound concentration of 3 μM and a test compound concentration of 10 μM. For given test compounds, the test was further carried out for a test compound concentration of 1 μM.

Row | SMILES | inhibition at 3 µM (test compound 3 μM) | inhibition at 10 µM (test compound 10 μM) | TGFβ inhibition, % (test compound 3 μM) | TGFβ inhibition, % (test compound 10 μM)
1 | COc1ccc(Oc2ccnc3cc(OC)c(OC)cc23)c(C(C)=O)c1 [Compound 36, 1-{2-[(6,7-Dimethoxy-4-quinolyl)oxy]-5-methoxyphenyl}-1-ethanone] | 95% | 100% |  | 
2 | COc1cc2nccc(Oc3ccccc3C(=O)c3ccccc3)c2cc1OC [Compound 62, {2-[(6,7-Dimethoxy-4-quinolyl)oxy]-phenyl}(phenyl)-methanone] | 43% | 85% |  | 
3 | COc1cc2nccc(Oc3ccccc3C(=O)c3ccccc3)c2cc1OC.Cl [Compound 63, {2-[(6,7-Dimethoxy-4-quinolyl)oxy]-phenyl}(phenyl)-methanone hydrochloride] |  |  | 57% | 91%
4 | COc1cc2nccc(Oc3ccc(Cl)cc3C(=O)c3ccccc3)c2cc1OC [Compound 68, {5-Chloro-2-[(6,7-dimethoxy-4-quinolyl)oxy]phenyl}-(phenyl)methanone] | 89% | 100% |  | 
5 | COc1cc2nccc(Oc3ccc(Cl)cc3C(=O)c3ccccc3)c2cc1OC.Cl [Compound 69, {5-Chloro-2-[(6,7-dimethoxy-4-quinolyl)oxy]phenyl}-(phenyl)methanone hydrochloride] |  |  | 100% | 100%
6 | COc1cc2nccc(Oc3ccc(C)cc3C(=O)c3ccccc3)c2cc1OC [Compound 71, {2-[(6,7-Dimethoxy-4-quinolyl)oxy]-5-methylphenyl}-(phenyl)methanone] | 79% | 100% |  | 
7 | COc1cc2nccc(Oc3ccc(C)cc3C(=O)c3ccccc3)c2cc1OC.Cl [Compound 72, {2-[(6,7-Dimethoxy-4-quinolyl)oxy]-5-methylphenyl}-(phenyl)methanone hydrochloride] |  |  | 98% | 100%
8 | COc1cc2nccc(Oc3cc(C)c(C)cc3C(=O)c3ccccc3)c2cc1OC [Compound 76, {2-[(6,7-Dimethoxy-4-quinolyl)oxy]-4,5-dimethylphenyl}-(phenyl)methanone hydrochloride] | 95% | 100% |  | 
9 | COc1ccc(Oc2ccnc3cc(OC)c(OC)cc23)c(C(C)=O)c1.Cl [Compound 177, 1-[2-(6,7-Dimethoxy-quinolin-4-yloxy)-5-methoxy-phenyl]-ethanone hydrochloride] |  |  | 94% | 100%
10 | COc1cc2nccc(Oc3cc(C)c(C)cc3/C(C)=N/O)c2cc1OC [Compound 195, 1-[2-(6,7-Dimethoxy-quinolin-4-yloxy)-4,5-dimethyl-phenyl]-ethanone oxime] |  | 100% |  | 
11 | C=CCO/N=C(\C)c1cc(C)c(C)cc1Oc1ccnc2cc(OC)c(OC)cc12 [Compound 197, 1-[2-(6,7-Dimethoxy-quinolin-4-yloxy)-4,5-dimethyl-phenyl]-ethanone o-allyl-oxime] | 40% |  |  | 
12 | COc1cc2nccc(Oc3ccc(F)nc3I)c2cc1OC [Compound 211, 4-(6-Fluoro-2-iodo-pyridin-3-yloxy)-6,7-dimethoxy-quinoline] | 87% | 100% |  | 
13 | COc1cc2c(Oc3cc(C)c(C)cc3C(C)=O)ccnc2cc1OCCCN1CCOCC1 [Compound 319, 1-{2-[6-Methoxy-7-(3-morpholin-4-yl-propoxy)-quinolin-4-yloxy]-4,5-dimethyl-phenyl}-ethanone] |  | 100% |  | 
14 | COc1cc2c(Oc3cc(C)c(C)cc3C(C)=O)ccnc2cc1OCCCN1CCOCC1.Cl.Cl [Compound 320, 1-{2-[6-Methoxy-7-(3-morpholin-4-yl-propoxy)-quinolin-4-yloxy]-4,5-dimethyl-phenyl}-ethanone hydrochloride] |  |  | 100% | 100%
15 | COc1cc2c(Oc3cc4ccccc4nc3C)ccnc2cc1OCCN1CCOCC1 [Compound 365, 6-Methoxy-4-(2-methyl-quinolin-3-yloxy)-7-(2-morpholin-4-yl-ethoxy)-quinoline] | 100% | 100% |  | 
16 | COc1cc2c(Oc3cc4ccccc4nc3C)ccnc2cc1OCCN1CCOCC1.Cl.Cl.Cl [Compound 366, 6-Methoxy-4-(2-methyl-quinolin-3-yloxy)-7-(2-morpholin-4-yl-ethoxy)-quinoline hydrochloride] |  |  | 100% | 100%
